“And” between values parts separate entries of the source, which are not always exact repeats. Identical values can stand only once.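 Cells were grown in 96-well plates and exposed to each compound for 48 hours at five concentrations; endpoints were interpolated linearly between bracketing concentrations, or set to the highest concentration if not reached. GI50: concentration for 50% inhibition of growth. TGI denotes the concentration required for complete inhibition of growth.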
Tests used:
Experiment in all cases: NCI tumour cell line growth inhibition, 48 h
U251 CNS = test system: U251 CNS
MCF7 breast = test system: MCF7 breast
OVCAR-3 ovarian = test system: OVCAR-3 ovarian
SK-MEL-28 melanoma = test system: SK-MEL-28 melanoma
A549 NSCLC = test system: A549 NSCLC
MALME-3M melanoma = test system: MALME-3M melanoma
SF-539 CNS = test system: SF-539 CNS
RXF 393 renal = test system: RXF 393 renal
CAKI-1 renal = test system: CAKI-1 renal
ACHN renal = test system: ACHN renal

SMILES | GI50 (U251 CNS) | TGI (U251 CNS) [µM] | GI50 (MCF7 breast) | TGI (MCF7 breast) [µM] | GI50 (OVCAR-3 ovarian) | TGI (OVCAR-3 ovarian) [µM] | TGI (SK-MEL-28 melanoma) [µM] | GI50 (A549 NSCLC) | TGI (A549 NSCLC) [µM] | GI50 (MALME-3M melanoma) [µM] | TGI (MALME-3M melanoma) [µM] | GI50 (SF-539 CNS) | TGI (SF-539 CNS) [µM] | GI50 (RXF 393 renal) | TGI (RXF 393 renal) [µM] | GI50 (CAKI-1 renal) [µM] | TGI (CAKI-1 renal) [µM] | GI50 (ACHN renal) | TGI (ACHN renal) [µM] | GI50 (SK-MEL-28 melanoma) [µM]
COc1ccc(N(Cc2cc(OC)c(OC)c(OC)c2)C2OC(=O)c3ccccc32)cc1 (stereo unspecified) | 0.385 µM | > 34.7 | 0.386 µM | > 100 | 0.368 µM | 1.98 | > 100 | 0.626 µM | > 100 | 0.511 | > 100 | 0.317 µM | 1.24 | 0.612 µM | > 100 | 0.532 | > 100 | 0.69 µM | > 100 | –
OCCCCC#Cc1ccccc1C#Cc1cnccn1 | 37.8 µM | > 100 | 44.6 µM | > 100 | 31.3 µM | > 100 | > 100 | 38.3 µM | > 100 | 47.9 | > 100 | 53.8 µM | > 100 | 15 µM | 54.2 | 26.4 | > 100 | 38.8 µM | > 100 | 43.4
COc1cc(OC)c(/C=C/S(=O)(=O)Cc2ccc(OC)c(NCC(=O)O)c2)c(OC)c1 | 0.193 µM and 0.0477 µM | > 100 | 0.109 µM and 0.0586 µM | > 100 | 0.0935 µM and 0.0702 µM | 0.533 | > 10 | 0.229 µM and 0.0755 µM | > 100 | – | > 100 | 0.193 µM and 0.0553 µM | – | 0.0726 µM and 0.0467 µM | > 100 | – | > 100 | 0.178 µM and 0.452 µM | > 100 | 0.34
COc1cc(C(=O)/C=C/c2c(C(F)(F)F)nc3sccn23)cc(OC)c1OC | 1.38 µM | 2.79 | 1.25 µM | 3.33 | 1.86 µM | 3.4 | 3.1 | 3.44 µM | 18 | 1.59 | 3.67 | 1.55 µM | 2.96 | 2.02 µM | 4.24 | 1.76 | 5.31 | 1.82 µM | 3.66 | 1.69
O=c1c2cc(F)ccc2sc2c(NCCCN3CCCC3)nc3ccccc3c12 | 1.81 µM | 3.62 | 1.22 µM | 2.89 | 2.07 µM | 4.72 | 3.85 | 1.87 µM | 3.83 | 1.77 | 3.37 | 1.69 µM | 3.19 | 2.33 µM | 8.67 | 1.48 | 2.95 | 1.69 µM | 3.18 | 1.97
CC(=O)Nc1ccc(-n2cnc3cc(-c4ccc(OCCN5CCCCC5)cc4)ccc32)cc1 | 4.16 µM | 9.14 | 4.16 µM | 13.6 | 5.27 µM | 10.4 | 9.06 | 1.4 µM | 5.74 | 2.46 | 7.59 | 1.64 µM | 6.47 | 3.04 µM | 8.04 | 6.01 | 11.7 | 3.61 µM | 11.4 | 4.45
CCCCCCN(CCCCCC)CC(O)c1cccc2ccc(Cl)cc12 (stereo unspecified) | 10.5 µM | 23.5 | 7.52 µM | 20.3 | 13 µM | 26 | 24.3 | 12.2 µM | 26.4 | 9.43 | 22.4 | 1.58 µM | 4.95 | 2.16 µM | 7.71 | 2.64 | 14.7 | 5.89 µM | 18.8 | 12
C=CC[PH+](c1ccccc1)c1ccccc1.C=CC[PH+](c1ccccc1)c1ccccc1.[Cl][Pt][Cl] | 7.45 µM | 22.3 | 5.62 µM | 24.4 | 3.21 µM | 10.4 | 21.3 | 21.8 µM | > 100 | 2.22 | 5.8 | 13.2 µM | 26.3 | 3.33 µM | 9.82 | 10.6 | 22.7 | 3.73 µM | 12.9 | 7.69
COc1ccc(S(=O)(=O)NCCNc2nccc(-c3c(-c4ccccc4)nc4sccn34)n2)cc1 | 5.17 µM | > 100 | 0.873 µM | > 100 | 3.56 µM | > 100 | > 100 | 1.61 µM | > 100 | 8.77 | > 100 | 13.7 µM | > 100 | 5.71 µM | 91 | 1.29 | > 100 | 2.02 µM | > 100 | 5.79
CN1c2ccccc2C(=O)Nc2cnc(Cl)nc21 | – | > 100 | – | > 100 | – | > 100 | > 100 | – | > 100 | – | > 100 | – | > 100 | – | > 100 | – | > 100 | – | > 100 | –
Cc1ccc(OCCCCCCNCCO)c(C)c1 | 12.7 µM | 26.8 | 13.9 µM | 28.7 | 15.5 µM | 29.6 | 29.9 | 17.8 µM | 34.8 | 17 | 35.3 | 14.7 µM | 28.6 | 6.53 µM | 20.8 | 16.2 | 32.2 | 13.8 µM | 27.8 | 15.4
COc1ccc(N=C2NN=C(c3c[nH]c4ccccc34)CS2)cc1OC | 6.38 µM | > 100 | 5.21 µM | > 75.5 | 2.87 µM | > 40.6 | > 90.4 | 9.92 µM | > 53.1 | 15 | > 69.1 | 8.25 µM | > 100 | 6.19 µM | > 25.7 | 8.05 | > 79.1 | 17.3 µM | > 100 | 15.3
